The conditions of data set [1]: human, plasma, 1 h.
Description: Metabolic stability in human plasma measured upto 60 mins in presence of NADPH by LC-MS/MS analysis
For data set [2] the following is noted: microsomes, 1 h, 1.5 µM.
Description: Metabolic stability in liver microsomes (unknown origin) at 1.5 uM measured upto 60 mins in presence of NADPH by LC-MS/MS analysis
A short description of data set [3]: AUC(0 to 24 hrs) in ICR mouse at 1 mg/kg, iv measured upto 24 hrs by LC-MS/MS analysis. It counts as ADME, organism-based. Particulars: in vivo.
Data set [4] in a line: Tmax in ICR mouse at 10 mg/kg, po measured upto 24 hrs by LC-MS/MS analysis. The format is ADME, organism-based. The conditions noted are these: in vivo.
Data set [5] in a line: MRTinfinity in ICR mouse at 1 mg/kg, iv measured upto 24 hrs by LC-MS/MS analysis. The format is ADME, organism-based. The conditions noted are these: in vivo.
Data set [6] can be described thus: Half life in ICR mouse at 10 mg/kg, po measured upto 24 hrs by LC-MS/MS analysis. The format is ADME, organism-based. The conditions noted are these: in vivo.
Data set [7] in a line: AUC(0 to 24 hrs) in ICR mouse at 10 mg/kg, po measured upto 24 hrs by LC-MS/MS analysis. The format is ADME, organism-based. Particulars: in vivo.
Data set [8] is described as follows: MRT(0 to t) in ICR mouse at 10 mg/kg, po measured upto 24 hrs by LC-MS/MS analysis. The format is ADME, organism-based. The conditions noted are these: in vivo.
Data set [9] is described as follows: Drug concentration in ICR mouse at 10 mmg/kg, po measured after 0.5 to 24 hrs. It counts as ADME, organism-based. Particulars: in vivo, 10 mg/kg, time 0.5-24 hrs.
A short description of data set [10]: Half life in ICR mouse at 1 mg/kg, iv measured upto 24 hrs by LC-MS/MS analysis. The format is ADME, organism-based. The conditions noted are these: in vivo.
Data set [11] can be described thus: Oral bioavailability in ICR mouse at 10 mg/kg measured upto 24 hrs by LC-MS/MS analysis. The format is ADME, organism-based. Particulars: in vivo.
The nature of data set [12]: AUCinfinity in ICR mouse at 10 mg/kg, po measured upto 24 hrs by LC-MS/MS analysis. It counts as ADME, organism-based. Particulars: in vivo.
Data set [13] in a line: MRTinfinity in ICR mouse at 10 mg/kg, po measured upto 24 hrs by LC-MS/MS analysis. Particulars: in vivo. It counts as ADME, organism-based.
A short description of data set [14]: Cmax in ICR mouse at 10 mg/kg, po measured upto 24 hrs by LC-MS/MS analysis. The format is ADME, organism-based. The conditions noted are these: in vivo.
Data set [15] can be described thus: Tmax in ICR mouse at 1 mg/kg, iv measured upto 24 hrs by LC-MS/MS analysis. It counts as ADME, organism-based. Particulars: in vivo.
A short description of data set [16]: AUCinfinity in ICR mouse at 1 mg/kg, iv measured upto 24 hrs by LC-MS/MS analysis. It counts as ADME, organism-based. Particulars: in vivo.
The nature of data set [17]: MRT(0 to t) in ICR mouse at 1 mg/kg, iv measured upto 24 hrs by LC-MS/MS analysis. Particulars: in vivo. It counts as ADME, organism-based.
A short description of data set [18]: Cmax in ICR mouse at 1 mg/kg, iv measured upto 24 hrs by LC-MS/MS analysis. The conditions noted are these: in vivo. It counts as ADME, organism-based.

One may read the AUC(0-t) as the area under the concentration-time curve up to a stated or last time point. Low readings indicate low exposure, high ones high exposure. For orientation: Tmax means the time from dosing to the highest level. A word on the MRT inf: it is a mean duration of stay, worked out from the concentration-time curve. The term half-life denotes the time in which the quantity being followed falls by half. A higher half-life goes with slow decline. In general, MRT last refers to the average time that molecules of a dose stay in the body. Usually bioavailability stands for dose-corrected exposure relative to a reference, in per cent. Low readings indicate little systemic uptake, high ones much systemic uptake. As usually defined, the AUC(0-inf) is the area under the concentration-time curve extrapolated to infinity. The Cmax is the maximum level reached in the sampled fluid or tissue.

`Cc1cc(Nc2ncc(Cl)c(Nc3ccccc3S(=O)(=O)C(C)C)n2)c(OC(C)C)cc1C1CCN(C2CCN(C3CN(c4ccc5c(c4)C(=O)N(C4CCC(=O)NC4=O)C5=O)C3)CC2)CC1` (stereo not given): the Stability result in data set [1] and in data set [2] was “Stable” in each case.
With `Cc1cc(Nc2ncc(Cl)c(Nc3ccccc3S(=O)(=O)C(C)C)n2)c(OC(C)C)cc1C1CCN(C2CN(C3CCN(c4ccc5c(c4)C(=O)N(C4CCC(=O)NC4=O)C5=O)CC3)C2)CC1` (stereo not given), the AUC(0-t) at 24 h turned out to be 17600 ng·h/mL in data set [3] and 23900 ng·h/mL in data set [7]. Moreover, the figures for the Tmax in data set [4] and in [15] were 4 h and 4.98 min, respectively. Moreover, the MRT inf was determined as 13.2 h in [5] and 15.7 h in [13]. Also, the half-life in data set [6] was 11.2 h; in [10] it was 10.8 h. The Stability entry in data set [1] and in data set [2] was “Stable” throughout. Besides, the mean residence time MRT last at 24 h in data set [8] is 8.61 h; in [17], 7.19 h. The Drug uptake in [9] worked out at 400 ng/mL. Also, the bioavailability in data set [11] was 14.2%. The AUC(0-inf) was 30800 ng·h/mL in data set [12] and 21700 ng·h/mL in data set [16]. The Cmax was 1710 ng/mL in [14] and 3000 ng/mL in [18].

The values above are taken from ChEMBL document CHEMBL6127061, “Discovery of orally bioavailable ALK PROTACs based ceritinib against ALK positive cancers” (Eur J Med Chem, 2024).
